Measurements from US20110306598A1, “Use of the association of a sinus node if current inhibitor and an angiotensin-converting enzyme inhibitor in the treatment of heart failure” (LES LABORATOIRES SERVIER, priority 2010, published 2011).
Marks after values point to notes of the source that are not given here.

What was measured:
[1] = system: rats with heart failure (left coronary artery ligature); experiment: Heart failure induced in rats by ligature of the left coronary artery; compound A, perindopril or both for 12 weeks; assay type: in vivo, rat; conditions: HF rats; for LVEDPVR: compliance of LV; for LVEDPVR / LVEDP / LVESP / LVESPVR / cardiac output / dP/dtmax / dP/dtmin / shortening fraction (% of the diameter of the LV) / Heart rate / tau: compound A 3 mg/kg, perindopril 0.4 mg/kg; for LVEDPVR / LVEDP / LVESP / LVESPVR / cardiac output / dP/dtmax / dP/dtmin / shortening fraction (% of the diameter of the LV) / tau: 12 weeks; for tau: relaxation time
Experimental: (§1) Heart failure was induced in rats by ligature of the left coronary artery (the control animals undergo an operation but are not ligated), which causes ischaemia of part of the wall of the left ventricle. The animals recuperate for 7 days and then, for 12 weeks, they are given either 3 mg/kg of compound A, or 0.4 mg/kg of perindopril, or perindopril and compound A concomitantly.

[2] = system: rats with heart failure (left coronary artery ligature); experiment: Same rat heart failure model; ivabradine, perindopril or their association; assay type: in vivo; conditions: HF rats
Experimental: as §1
This effect on systolic function and diastolic function was then studied using the association of perindopril and a different If current inhibitor, ivabradine.

[3] = Table 4B, ivabradine on its own

Structure (SMILES) | effect on compliance of the left ventricle, measured by LVEDPVR (in words) [1] | effect on end diastolic pressure and relaxation time (in words) [1] | effect on systolic function, seen from the LVESPVR (in words) [1] | LVEDPVR [1] | LVEDP [1] | LVESP [1] [mmHg] | LVESPVR [1] | cardiac output [1] | dP/dtmax [1] | dP/dtmin [1] | shortening fraction (% of the diameter of the LV) [1] | Heart rate ([1]; duration of treatment 4 weeks) [bpm] | Heart rate ([1]; duration of treatment 12 weeks) | tau [1] | further results
COc1cc2c(cc1OC)CCN(C(=O)CCN(C)C[C@H]1Cc3cc(OC)c(OC)cc31)CC2 [compound A, N-{[(7S)-3,4-dimethoxybicyclo[4.2.0]octa-1,3,5-trien-7-yl]methyl}-3-(7,8-dimethoxy-1,2,4,5-tetrahydro-3H-3-benzazepin-3-yl)-N-methyl-3-oxo-1-propanamine] | very clearly improved | clearly improved | improves systolic function | 2.70^† mmHg/RVU | 4.89^† mmHg | 118 | 16.1^† mmHg/RVU | 127 mL/min | 6.78 10^3 mmHg/s | 5.87 −10^3 mmHg/s | 18.0 % of the diameter of the LV | 349.3 | 342.7^† bpm | 8.37^† ms | effect on heart rate (in words) ([1]; vs untreated HF): significant reduction in heart rate
COc1cc2c(cc1OC)CC(=O)N(CCCN(C)C[C@H]1Cc3cc(OC)c(OC)cc31)CC2 [ivabradine, 3-{3-[{[(7S)-3,4-dimethoxybicyclo[4.2.0]octa-1,3,5-trien-7-yl]-methyl}(methyl)amino]propyl}-7,8-dimethoxy-1,3,4,5-tetrahydro-2H-3-benzazepin-2-one] | – | – | – | – | – | – | – | – | – | – | – | – | – | – | effect on diastolic dysfunction (in words) [2]: comparable to that of perindopril on its own; LVEDPVR [2, 3]: 1.87*^† mmHg/RVU; LVESPVR [2, 3]: 20.63*^† mmHg/RVU
CCC[C@H](N[C@@H](C)C(=O)N1[C@H](C(=O)O)C[C@@H]2CCCC[C@@H]21)C(=O)OCC [perindopril] | very clearly improved | clearly improved | improves systolic function | 2.36^† mmHg/RVU | 5.17^† mmHg | 99 | 16.4^† mmHg/RVU | 142^† mL/min | 5.97 10^3 mmHg/s | 5.11 −10^3 mmHg/s | 17.1 % of the diameter of the LV | 388.2 | 387.7 bpm | 7.31^† ms | effect on systolic function (in words) [2]: improves the systolic function; LVEDP ([2]; Table 4a): 6.88^† mmHg; LVEDPVR ([2]; Table 4a): 2.25^† mmHg/RVU; LVESP ([2]; Table 4a): 102^† mmHg; LVESPVR ([2]; Table 4a): 14.5^† mmHg/RVU; dP/dtmax ([2]; Table 4a): 6.08^† 10^3 mmHg/s; dP/dtmin ([2]; Table 4a): 4.99 −10^3 mmHg/s; tau ([2]; Table 4a): 10.92^† ms
